Laboratory results as given in PMC8315922, “In Vitro Identification and In Vivo Confirmation of Inhibitors for Sweet Potato Chlorotic Stunt Virus RNA Silencing Suppressor, a Viral RNase III” (Journal of Virology, 2021).
pKd: −log10 of the molar value.

How the values were obtained:
CSR3 = target: T1, CSR3 (Sweet potato chlorotic stunt virus, UniProt Q8JJW8); assay: Binding affinity assay using SPR; conditions: for pKd: unit inferred, read-out: Steady State Affinity
T1 sequence (Q8JJW8 1-228): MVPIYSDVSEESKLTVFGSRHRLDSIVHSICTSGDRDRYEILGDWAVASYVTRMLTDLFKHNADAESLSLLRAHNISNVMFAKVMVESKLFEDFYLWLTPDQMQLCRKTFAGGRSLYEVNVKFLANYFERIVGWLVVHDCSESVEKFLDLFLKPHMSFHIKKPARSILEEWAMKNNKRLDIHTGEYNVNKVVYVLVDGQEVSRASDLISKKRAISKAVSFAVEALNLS
Description: Binding affinity assays were first carried out with the 99 commercial compounds using the MST method.
CSR3 was purified as described above and stored in PBS buffer. SPR was performed on a BiacoreT100 instrument (GE Healthcare) using a sensor S CM5 chip (GE Healthcare). CSR3 (10 ng/μl) was immobilized using the standard amine-coupling method according to the manufacturer’s instructions with immobilization buffer (10 mM sodium acetate [pH 4]); the final response unit (RU) value was 11,459. Compounds at a single concentration (100 μM) or consisting of 2-fold serial dilutions (3 μM to 200 μM) were flowed over the sensor surface using PBS buffer with 0.01 M HEPES, 0.05% surfactant P20, and 2% DMSO. […] To eliminate bulk interference by DMSO, a solvent correction consisting of DMSO at concentrations ranging from 1.5% to 2.8% was carried out for every 30 samples. Steady-state affinity (KD) values were determined using BiacoreT100 Evaluation software, v.2.04 (GE Healthcare).

SPCSV [1] = assay: Virus accumulation (RT-qPCR of coat protein RNA) in coinfected sweetpotato plants grown in culture medium: SPCSV; type: in vivo, Sweet potato chlorotic stunt virus; conditions: for SPCSV_FC (fold change of viral accumulation): 50 μM in culture medium, 28 days, relative to DMSO control; for SPCSV accumulation reduced / viral titer SPCSV (log2 fold change relative to controls): plants in culture medium, 50 μM
Description: Since tests in culture medium consume smaller amounts of compounds and can be carried out under relatively controlled conditions, sweetpotato plants coinfected with SPCSV and SPFMV were grown in medium supplemented with one of the 30 inhibitor candidates at a concentration of 50 μM. Their effects on plant growth were monitored by imaging the plants once a week. […] In addition, virus accumulation was quantified by measuring the relative abundance of the transcripts encoding viral coat proteins using RT-qPCR ([32]). The effect of individual compounds on virus accumulation was estimated by comparing treated and control plants.
(§1) Sweetpotato plants cultivar 'Huachano' (accession CIP420065) were side-graft inoculated with both SPFMV (East African strain isolate Nam1) and SPCSV-Ug (East African serotype 2) as described previously ([62]). Plantlets were propagated by taking single-node stems grown in a plant culture medium ([33]). Next, plantlets with newly formed roots were transferred to glass tubes (18 by 150 mm) containing 10 ml of medium supplemented with either 50 μM compound (diluted in DMSO; final DMSO concentration, 0.1%) or only 0.1% DMSO as a control. For plant experiments in soil, plantlets were transferred to pots (6 by 6 by 10 cm) filled with a mixture of sand, humus, and washed soil. After 1 week, plants were treated by foliar spraying using either individual compounds at a single concentration (10 μM) (treatment) or water (control/mock) twice a week for 1 month. All plants were grown at 22°C with 60% humidity and a 16-h light/8-h dark photoperiod for 28 days in culture medium and for 41 days in soil. The Finnish National Plant Phenotyping Infrastructure (NaPPI) was used to monitor plant viral disease symptoms as described in our previous study ([33]). Four compounds were tested with the phenotyping platform in two independent batches, each of which included five biological replicates.
Leaf samples were collected from plants grown in culture medium or soil for 28 or 41 days, respectively, and frozen in liquid nitrogen. Total RNA was extracted using the Spectrum plant total RNA kit (Sigma-Aldrich). First-strand cDNA was synthesized using the Transcriptor first-strand cDNA synthesis kit (Roche, Basel, Switzerland). […] All RT-qPCR experiments were conducted in triplicate on three and five biological replicates from plants grown in culture medium and soil, respectively. The primer list can be found in our previous study ([33]).
(§2) For HTS, the activity of CSR3 was calculated by measuring the change in fluorescence as a function of the reaction time using MARS Data Analysis software (BMG Labtech). To evaluate the CSR3 inhibition efficiency of individual compounds, the PI of each compound was calculated using the slope values for the sample, positive control, and negative control according to the following equation: PI = 100 × [1 − (sample − positive)/(negative − positive)]%. IC50 and DSS values were calculated using concentration-specific PI values according to a previous study ([31]). Relative gene expression was calculated using the classical 2^−ΔΔ^CT method ([63]).

SPFMV = conditions: plants in soil, 10 μM foliar spray twice a week for 1 month, vs water-treated
Description: (§3) Compounds were administered by regular foliar spray over 1 month.
as §1
(§4) Leaf samples were collected from plants grown in culture medium or soil for 28 or 41 days, respectively, and frozen in liquid nitrogen. Total RNA was extracted using the Spectrum plant total RNA kit (Sigma-Aldrich). First-strand cDNA was synthesized using the Transcriptor first-strand cDNA synthesis kit (Roche, Basel, Switzerland). Gene expression was measured in a final volume of 10 μl (containing 2 μl 10-fold-diluted cDNA, 5 μl SYBR green I master mix [Roche], and 2.5 μM primers) using the LightCycler 480 instrument II (Roche). All RT-qPCR experiments were conducted in triplicate on three and five biological replicates from plants grown in culture medium and soil, respectively. The primer list can be found in our previous study ([33]).
as §2

SPCSV [2] = conditions: plants in soil, 10 μM foliar spray twice a week for 1 month, vs water-treated
Description: as §3, §1, §4, §2

[3] = SPR dose-response 3 μM to 200 μM, 25°C, numbers match M (cf. Fig 5A)

O=C1c2c(O)ccc(O)c2C(=O)c2c(NCCNCCO)ccc(NCCNCCO)c21 [FIMM000490]
pKd (CSR3; [3]): 6.86 | SPCSV_FC (fold change of viral accumulation) (SPCSV [1]): 0.2453

O=C(O)c1ccc(C2Nc3c(Br)cccc3C3C=CCC32)cc1 (stereo not shown) [FIMM022230]
log2 fold change in coat protein expression of SPFMV (SPFMV): −0.73 | log2 fold change in coat protein expression of SPCSV (SPCSV [2]): −0.58 | KD (SPR) (CSR3; steady-state affinity, Fig 5A): millimolar range | SPCSV_FC (fold change of viral accumulation) (SPCSV [1]): 0.08458 | SPCSV accumulation reduced (SPCSV [1]): approximately 8 fold | viral titer SPCSV (log2 fold change relative to controls) (SPCSV [1]): −3.56

Cc1ccc(C2Nc3ccc(C(=O)O)cc3C3C=CCC32)cc1 (stereo not shown) [FIMM031755]
log2 fold change in coat protein expression of SPFMV (SPFMV): −1.33 | log2 fold change in coat protein expression of SPCSV (SPCSV [2]): −1.30 | pKd (CSR3; [3]): 5.42 | SPCSV_FC (fold change of viral accumulation) (SPCSV [1]): 0.5163 | SPCSV accumulation reduced (SPCSV [1]): ~2 fold | viral titer SPCSV (log2 fold change relative to controls) (SPCSV [1]): −0.95

COc1cc(C=C2C(=O)NC(=S)NC2=O)ccc1OCc1ccccc1[N+](=O)[O-] [FIMM101864]
Steady State Affinity (CSR3; SPR dose-response 3 μM to 200 μM, 25°C, unit not given, numbers match M (cf. Fig 5A)): non binder | SPCSV_FC (fold change of viral accumulation) (SPCSV [1]): 0.5034
